Experimental data taken from patent US20250221932A1, “IMMUNE ENHANCEMENT OF CANCER TREATMENT” (Spark Therapeutics, Inc., priority 2022, published 2025).

What was measured:
[1] = tested on: serum cytokines/chemokines; assay: Serum cytokine levels 4 hours after dosing in the AML model; assay type: in vivo, mice (C57BL/6); conditions: 4 hours after first i.v. dose, 50 μg
Procedure: (§1) Three days post-tumor cell injection, treatment (vehicle, DNA-LNP (10 μg), ADU-S100 (50 μg)) was provided by 100 μL i.v. administration given three times (day 0, 3, 6). Vehicle was made of 20% Glucose/PBS solution. LNP composition (in mole %) was Lipid 9, ˜50% (Lipid 9 is further described in Section I.A. supra and Sabnis et al., (2018) Molecular Therapy 26:6, 1509-1519); C14-PEG2000, ˜1.5%; cholesterol, ˜38.5%; and distearoylphosphatidylcholine (DSPC), ˜10%. ADU-S100 is a STING agonist (MedChemExpress).
(§2) Serum was collected 4 hours after the first dose for cytokine/chemokine analyses. Mice (n=8) were observed daily for abnormalities and euthanized individually when the animal reached the humane endpoint.
Three days post-tumor cell injection, treatment (vehicle, DNA-LNP (5 μg), DNA-LNP2 (5 μg)) was provided by 100 μL i.v. administration given three times (day 0, 3, 6). Serum was collected 4 hours after the first dose for cytokine/chemokine analyses. Mice (n=8) were observed daily for abnormalities and euthanized individually when the animal reached the humane endpoint.

[2] = tested on: C1498 cells; assay: Acute myeloid leukemia (AML) model, survival; assay type: in vivo, mice (C57BL/6); conditions: 50 μg i.v. day 0, 3, 6; FIG. 9
Procedure: The ability of nanoparticle dsDNA delivery to inhibit leukemia was evaluated in a mouse model for acute myeloid leukemia (AML). The AML model was established by intravenously (i.v.) injecting C57BL/6 mice with 1×10^6 C1498 cells. (See Zhang et al., Blood 2009; 114 (8): 1545-1552 and Curran et al., 2016, Cell Reports 15, 2357-2366).
as §1, §2
The ability of nanoparticle dsDNA delivery to inhibit leukemia was evaluated in the AML mouse model described in Example 5. Three days post-tumor cell injection, administration of vehicle, LNP (same amount of LNP as used in 5 μg DNA-LNP), DNA-LNP (1 μg), DNA-LNP (5 μg) was provided by 100 μL i.v. given three times (day 0, 3, 6). […]

Nc1ncnc2c1ncn2[C@@H]1O[C@@H]2COP(=O)([S-])O[C@@H]3[C@H](O)[C@@H](COP([O-])(=S)O[C@H]2[C@H]1O)O[C@H]3n1cnc2c(N)ncnc21.[Na+].[Na+] (stereo partly shown) [ADU-S100]
Serum level GRO alpha, Average [1]: 134 pg/mL | Serum level IFN alpha, Average [1]: 1775 pg/mL | Serum level IFN beta, Average [1]: 2819 pg/mL | Serum level IFN gamma, Average [1]: 7 pg/mL | Serum level IL-6, Average [1]: 2617 pg/mL | Serum level IL-18, Average [1]: 150 pg/mL | Serum level MCP-1, Average [1]: 5571 pg/mL | Serum level MIP-1 beta, Average [1]: 640 pg/mL | Serum level TNF alpha, Average [1]: 732 pg/mL | survival in the AML model [2]: increased survival
